{"source": "paper PMC9652372", "about": "“Glycolytic flux control by drugging phosphoglycolate phosphatase” (Nature Communications, 2022)", "key": {"murine PGP [1]": {"molecular_target": "T1, murine PGP (Mus musculus, UniProt Q8CHP8)", "T1 sequence (Q8CHP8 1-321)": "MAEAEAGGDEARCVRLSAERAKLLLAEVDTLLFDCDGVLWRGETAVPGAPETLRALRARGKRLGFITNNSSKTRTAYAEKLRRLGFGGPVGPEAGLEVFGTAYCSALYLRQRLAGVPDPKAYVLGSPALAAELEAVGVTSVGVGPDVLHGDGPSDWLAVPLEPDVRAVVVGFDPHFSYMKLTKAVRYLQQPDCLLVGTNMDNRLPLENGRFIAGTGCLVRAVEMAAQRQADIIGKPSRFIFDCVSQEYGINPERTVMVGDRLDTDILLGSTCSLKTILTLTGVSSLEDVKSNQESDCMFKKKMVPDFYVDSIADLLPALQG", "assay": "IC50 determination, murine PGP, 2-phospho-L-lactate (2PL) dephosphorylation", "conditions": "for M.m PGP on 2- Phospho-L-lactate: activity, control = 100"}, "[2]": {"molecular_target": "T2, murine PGP-WT / PGP-C297S (Mus musculus, UniProt Q8CHP8, C297S)", "T2 construct": "His6 (N, cleaved yes); made in house; host or cells: Escherichia coli BL21 (DE3)", "T2 sequence (Q8CHP8 1-321 C297S)": "T1 sequence (Q8CHP8 1-321) with C297S", "assay": "Size-exclusion chromatography, PGP self-association", "conditions": "SEC; 100 µM CP1", "experimental": "(§1) A volume of 900 µL was loaded onto a Superdex 200 10/300GL (Cytiva) size exclusion chromatography column operated on an ÄKTA liquid chromatography system.\n(§2) Error bars not shown are hidden by the symbols. (c) PGP self-association in the absence or presence of CP1. Size- exclusion chromatography (SEC) of purified, recombinant murine PGP-WT in comparison to PGP-C297 […]\n(§3) (1 picture or pasted object on this page, not shown here)\n(§4) (100 µM). SEC profiles of PGP -WT are the mean of n=3 independent experiments; PGP -C297S […]\n(§5) independent experiments. Statistical testing was done using a two-sided t-test, and the p- value"}, "[3]": {"molecular_target": "T3, murine PGP-WT / PGP-C297S (Mus musculus, UniProt Q8CHP8)", "T3 construct": "His6 (N, cleaved yes); made in house; host or cells: Escherichia coli BL21 (DE3)", "T3 sequence (Q8CHP8 1-321)": "T1 sequence (Q8CHP8 1-321)", "assay": "Size-exclusion chromatography, PGP self-association", "conditions": "SEC, PGP-WT 30 µM; CP1 100 µM", "experimental": "as §1, §2, §3, §4, §5"}, "murine PGP^C297S": {"molecular_target": "T4, murine PGP^C297S (Mus musculus, UniProt Q8CHP8, C297S)", "T4 construct": "His6 (N, cleaved yes); made in house; host or cells: Escherichia coli BL21 (DE3)", "T4 sequence (Q8CHP8 1-321 C297S)": "T1 sequence (Q8CHP8 1-321) with C297S", "assay": "IC50 determination, PGP^C297S, PG dephosphorylation", "assay_type": "biochemical", "experimental": ". […] Data were analyzed with GraphPad Prism 7.04.\nSupplementary Figure 3 (related to Figure 2): Characterization of the homodimeric PGP variant PGPC297S. (a) In vitro phosphatase activity of purified murine PGPC297S in comparison to purified murine PGPWT, using 2- phosphoglycolate (PG) as substrate. (b) Determ ination of […]\nas §2, with “CP1. PG dephosphorylation was quantified using malachite green. All data in (a) and (b) are mean values ± S.E.M of n=3 independent experiments. Error” for “Error”\nas §3"}, "murine PGP [4]": {"molecular_target": "T1, murine PGP", "assay": "IC50 determination, murine PGP, 4-phosphoerythronate (4PE) dephosphorylation", "conditions": "for M.m PGP on 4-Phosphoerythronate: activity, control = 100"}, "HT1080 cells": {"test_system": "HT1080 cells", "assay": "Cell viability assay (AquaBluer)", "assay_type": "cell-based, human", "experimental": "Cell viability was assessed using AquaBluer according to the manufacturer’s recommendations (MultiTarget Pharmaceuticals, LLC). Fluorescence (excitation: 540 nm; emission: 590 nm) was analyzed on a Clariostar microplater reader."}, "murine PGP [5]": {"molecular_target": "T1, murine PGP", "assay": "IC50 determination, murine PGP, glycerol 3-phosphate (G3P) dephosphorylation (EnzChek)"}, "PGP^S71R": {"molecular_target": "T5, PGP^S71R (Mus musculus, UniProt Q8CHP8, S71R)", "T5 sequence (Q8CHP8 1-321 S71R)": "T1 sequence (Q8CHP8 1-321) with S71R", "conditions": "read-out: enzyme activity in presence of CP1 relative to DMSO control (1), mPGP-S71R, Exp #1-#3"}}, "note": "Numbering of substitutions follows the chain as printed. Several values for one entry are separate records, joined by “and”; a condition that tells them apart may be missing. Equal entries are not always repeated.", "data": [{"smiles": "O=C(Nc1ccccc1C(=O)O)c1ccc(Oc2ccc(C(=O)Nc3ccccc3C(=O)O)cc2)cc1", "note": "[CP1]", "values": [{"measurement": "IC50", "setting": "murine PGP [1]", "value": "310 ± 30", "unit": "nM"}, {"measurement": "M.m PGP on 2- Phospho-L-lactate", "setting": "murine PGP [1]; CP1 log[M] -5.04576", "value": "4.1667 and 4.9853 and 5.6548"}, {"measurement": "M.m PGP on 2- Phospho-L-lactate", "setting": "murine PGP [1]; CP1 log[M] -5.52288", "value": "7.7778 and 8.7977 and 9.2262"}, {"measurement": "M.m PGP on 2- Phospho-L-lactate", "setting": "murine PGP [1]; CP1 log[M] -6", "value": "23.0556 and 24.9267 and 23.8095"}, {"measurement": "M.m PGP on 2- Phospho-L-lactate", "setting": "murine PGP [1]; CP1 log[M] -6.47712", "value": "45.5556 and 51.3196 and 45.8333"}, {"measurement": "M.m PGP on 2- Phospho-L-lactate", "setting": "murine PGP [1]; CP1 log[M] -6.95424", "value": "73.3333 and 81.2317 and 78.869"}, {"measurement": "M.m PGP on 2- Phospho-L-lactate", "setting": "murine PGP [1]; CP1 log[M] -7.43136", "value": "88.6111 and 95.3079 and 85.7143"}, {"measurement": "M.m PGP on 2- Phospho-L-lactate", "setting": "murine PGP [1]; CP1 log[M] -7.90849", "value": "96.3889 and 100.293 and 92.8571"}, {"measurement": "effect on PGP^C297S self-association", "setting": "[2]", "value": "did not affect"}, {"measurement": "max. peak height of PGP tetramer/PGP total", "setting": "[3]", "value": "0.166 and 0.138 and 0.1887"}, {"measurement": "IC50", "setting": "murine PGP^C297S; PGP^C297S, substrate PG", "value": "~250", "unit": "nM"}, {"measurement": "remaining activity at […]", "setting": "murine PGP^C297S; read-out: PGP-C297S activity in presence of CP1 relative to DMSO control, CP1 log[M] -5.60206", "value": 6.31, "unit": "%"}, {"measurement": "remaining activity at 1.25 µM", "setting": "murine PGP^C297S; read-out: PGP-C297S activity in presence of CP1 relative to DMSO control, CP1 log[M] -5.90309", "value": 12.6, "unit": "%"}, {"measurement": "remaining activity at 0.3125 µM", "setting": "murine PGP^C297S; read-out: PGP-C297S activity in presence of CP1 relative to DMSO control, CP1 log[M] -6.50515", "value": 44.1, "unit": "%"}, {"measurement": "remaining activity at 0.15625 µM", "setting": "murine PGP^C297S; read-out: PGP-C297S activity in presence of CP1 relative to DMSO control, CP1 log[M] -6.80618", "value": 56.8, "unit": "%"}, {"measurement": "remaining activity at 0.078125 µM", "setting": "murine PGP^C297S; read-out: PGP-C297S activity in presence of CP1 relative to DMSO control, CP1 log[M] -7.10721", "value": 72.1, "unit": "%"}, {"measurement": "remaining activity at 0.03906 µM", "setting": "murine PGP^C297S; read-out: PGP-C297S activity in presence of CP1 relative to DMSO control, CP1 log[M] -7.40824", "value": 75.7, "unit": "%"}, {"measurement": "remaining activity at 0.01953 µM", "setting": "murine PGP^C297S; read-out: PGP-C297S activity in presence of CP1 relative to DMSO control, CP1 log[M] -7.70927", "value": 90.1, "unit": "%"}, {"measurement": "IC50", "setting": "murine PGP [4]", "value": "440 ± 60", "unit": "nM"}, {"measurement": "M.m PGP on 4-Phosphoerythronate", "setting": "murine PGP [4]; CP1 log[M] -5.34679", "value": "4.5082 and 7.8838 and 6.1475"}, {"measurement": "M.m PGP on 4-Phosphoerythronate", "setting": "murine PGP [4]; CP1 log[M] -5.94885", "value": "24.5902 and 29.0456 and 23.7705"}, {"measurement": "M.m PGP on 4-Phosphoerythronate", "setting": "murine PGP [4]; CP1 log[M] -6.24988", "value": "43.8525 and 48.1328 and 39.3443"}, {"measurement": "M.m PGP on 4-Phosphoerythronate", "setting": "murine PGP [4]; CP1 log[M] -6.55091", "value": "54.0984 and 64.3154 and 65.9836"}, {"measurement": "M.m PGP on 4-Phosphoerythronate", "setting": "murine PGP [4]; CP1 log[M] -6.85194", "value": "70.4918 and 82.5726 and 78.6885"}, {"measurement": "fluorescence intensity", "setting": "HT1080 cells; CP1 10µM", "value": "73536.5 arbitrary units and 54985.5 arbitrary units and 58790.8 arbitrary units"}, {"measurement": "fluorescence intensity", "setting": "HT1080 cells; CP1 33 µM", "value": "67669 arbitrary units and 60068 arbitrary units and 61386.5 arbitrary units"}, {"measurement": "fluorescence intensity", "setting": "HT1080 cells; CP1 100 µM", "value": "68775 arbitrary units and 63101.8 arbitrary units and 70832.2 arbitrary units"}, {"measurement": "fluorescence intensity", "setting": "HT1080 cells; CP1 200 µM", "value": "68392.2 arbitrary units and 53769.5 arbitrary units"}, {"measurement": "cytotoxicity", "setting": "HT1080 cells; HT1080 cells, 100 µM, 24 h", "value": "not cytotoxic"}, {"measurement": "IC50", "setting": "murine PGP [5]", "value": "1040 ± 80", "unit": "nM"}, {"measurement": "remaining activity at 8 µM", "setting": "murine PGP [5]; read-out: M.m PGP on G3P, activity, control = 100, CP1 log[M] -5.09691", "value": 13.8, "unit": "%"}, {"measurement": "remaining activity at 4 µM", "setting": "murine PGP [5]; read-out: M.m PGP on G3P, activity, control = 100, CP1 log[M] -5.39794", "value": 19.5, "unit": "%"}, {"measurement": "remaining activity at 2 µM", "setting": "murine PGP [5]; read-out: M.m PGP on G3P, activity, control = 100, CP1 log[M] -5.69897", "value": 32.5, "unit": "%"}, {"measurement": "remaining activity at 1 µM", "setting": "murine PGP [5]; read-out: M.m PGP on G3P, activity, control = 100, CP1 log[M] -6", "value": 53.8, "unit": "%"}, {"measurement": "remaining activity at 0.5 µM", "setting": "murine PGP [5]; read-out: M.m PGP on G3P, activity, control = 100, CP1 log[M] -6.30103", "value": 80, "unit": "%"}, {"measurement": "remaining activity at […]", "setting": "murine PGP [5]; read-out: M.m PGP on G3P, activity, control = 100, CP1 log[M] -6.60206", "value": 91.2, "unit": "%"}, {"measurement": "remaining activity at 0.125 µM", "setting": "murine PGP [5]; read-out: M.m PGP on G3P, activity, control = 100, CP1 log[M] -6.90309", "value": 96.2, "unit": "%"}, {"measurement": "remaining activity at 0.0625 µM", "setting": "murine PGP [5]; read-out: M.m PGP on G3P, activity, control = 100, CP1 log[M] -7.20412", "value": 98.8, "unit": "%"}, {"measurement": "remaining activity at 0.03125 µM", "setting": "murine PGP [5]; read-out: M.m PGP on G3P, activity, control = 100, CP1 log[M] -7.50515", "value": 91.2, "unit": "%"}, {"measurement": "remaining activity at 39.81 µM", "setting": "PGP^S71R; CP1 log[M] -4.40", "value": 25, "unit": "%"}, {"measurement": "remaining activity at 19.95 µM", "setting": "PGP^S71R; CP1 log[M] -4.70", "value": 38, "unit": "%"}, {"measurement": "remaining activity at 10 µM", "setting": "PGP^S71R; CP1 log[M] -5.00", "value": 50, "unit": "%"}, {"measurement": "remaining activity at 5.012 µM", "setting": "PGP^S71R; CP1 log[M] -5.30", "value": 68, "unit": "%"}, {"measurement": "remaining activity at 2.512 µM", "setting": "PGP^S71R; CP1 log[M] -5.60", "value": 81, "unit": "%"}, {"measurement": "remaining activity at 0.631 µM", "setting": "PGP^S71R; CP1 log[M] -6.20", "value": 95, "unit": "%"}, {"measurement": "remaining activity at […]", "setting": "PGP^S71R; CP1 log[M] -6.51", "value": 100, "unit": "%"}, {"measurement": "remaining activity at 0.1549 µM", "setting": "PGP^S71R; CP1 log[M] -6.81", "value": 92, "unit": "%"}]}]}
